In patent US20250034167A1, “HETEROCYCLIC COMPOUNDS AND METHODS OF USE” (AMGEN INC., priority 2021, published 2025):
Read-outs that look alike come from different tables or passages of the source.

What was measured:
[1] = system: Phosphorylation of ERK1/2 in AsPC-1 cells; assay: Phospho-ERK1/2 MSD Assay; type: cell-based
Method: Sixteen hours prior to compound treatment, AsPC-1 cells were seeded in 96-well cell culture plates at a density of 25,000 cells/well and incubated at 37° C., 5% CO2. A compound dose-response titration was diluted in growth media, added to appropriate wells of a cell culture plate, and then incubated at 37° C., 5% CO2 for 2 hours.

[2] = target: His-tagged KRAS G12D protein (Homo sapiens, UniProt P01116, G12D); assay: biochemical
Chain of His-tagged KRAS G12D protein (P01116 1-188 isoform P01116-2 G12D): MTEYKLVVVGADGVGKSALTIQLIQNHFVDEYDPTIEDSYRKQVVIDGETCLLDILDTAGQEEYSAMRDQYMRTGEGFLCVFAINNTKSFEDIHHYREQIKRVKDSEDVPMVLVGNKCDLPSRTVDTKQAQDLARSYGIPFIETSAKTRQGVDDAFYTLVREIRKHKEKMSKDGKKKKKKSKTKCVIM
Method: The plate was incubated for 30 minutes at room temperature. Biotinylated KRPep-2d substrate (Amgen) was diluted to nM in Assay Buffer and 2 μL was added to all wells and incubated for 1 hour at room temperature. Detection Reagent (0.4 nM LANCE Eu-W1024 Anti-6×His (Perkin Elmer AD0401), 5 nM streptavidin-d2 (Cisbio 610SADLA)) was prepared in Assay Buffer, then 4 µL was added to the plate and incubated for 1 hour at room temperature.

[3] = read-out: 2 h p-ERK (AsPC-1 cells), IC50, AsPC-1 cells, 2 h compound treatment
[4] = Homo sapiens, ASPC1, 2 h, read-out: 2 h p-ERK (AsPC-1 cells), IC50, AsPC-1 cells, 2 h compound treatment

Structure (SMILES) | IC50 [1, 3] [nM] | IC50 [2] [nM] | IC50 [1, 4] [nM]
C#Cc1c(F)ccc2cc(O)cc(-c3ncc4c(N5CC6CC(O)C(C6)C5)nc(OC[C@@]56CCCN5C[C@H](F)C6)nc4c3F)c12 (single isomer, unassigned) [Example 27] | 1030 | 6 | 
CCc1c(F)ccc2cc(O)cc(-c3ncc4c(N5CCCC[C@@H](NC(=O)C(F)F)C5)nc(OC[C@@]56CCCN5C[C@H](F)C6)nc4c3F)c12 [Example 132, N-((R)-1-(7-(8-Ethyl-7-fluoro-3-hydroxynaphthalen-1-yl)-8-fluoro-2-(((2R,7aS)-2-fluorotetrahydro-1H-pyrrolizin-7a(5H)-yl)methoxy)pyrido[4,3-d]pyrimidin-4-yl)azepan-3-yl)-2,2-difluoroacetamide] |  | 1 | 119
CCc1c(F)ccc2cc(O)cc(-c3ncc4c(N5CC6CC(O)C(C6)C5)nc(OC[C@@]56CCCN5C[C@H](F)C6)nc4c3F)c12 (single isomer, unassigned) [Example 23] | 2380 | 31 | 
CCc1c(F)ccc2cc(O)cc(-c3ncc4c(N5CCC[C@](C)(CO)C5)nc(OC[C@@]56CCCN5C[C@H](F)C6)nc4c3F)c12 [Example 66, 5-Ethyl-6-fluoro-4-(8-fluoro-2-(((2R,7aS)-2-fluorotetrahydro-1H-pyrrolizin-7a(5H)-yl)methoxy)-4-((S)-3-(hydroxymethyl)-3-methylpiperidin-1-yl)pyrido[4,3-d]pyrimidin-7-yl)naphthalen-2-ol] |  | 18 | 754
CCc1c(F)ccc2cc(O)cc(-c3ncc4c(N5CCCC(C)(C(N)=O)C5)nc(OC[C@@]56CCCN5C[C@H](F)C6)nc4c3F)c12 (stereo partly drawn) [Example 68, 1-(7-(8-Ethyl-7-fluoro-3-hydroxynaphthalen-1-yl)-8-fluoro-2-(((2R,7aS)-2-fluorotetrahydro-1H-pyrrolizin-7a(5H)-yl)methoxy)pyrido[4,3-d]pyrimidin-4-yl)-3-methylpiperidine-3-carboxamide] |  | 8 | 1690
CCc1c(F)ccc2cc(O)cc(-c3ncc4c(N5CC[C@H](O)[C@@H](O)C5)nc(OC[C@@]56CCCN5C[C@H](F)C6)nc4c3F)c12 (relative stereo) [Example 101, rel-(3S,4S)-1-(7-(8-Ethyl-7-fluoro-3-hydroxynaphthalen-1-yl)-8-fluoro-2-(((2R,7aS)-2-fluorotetrahydro-1H-pyrrolizin-7a(5H)-yl)methoxy)pyrido[4,3-d]pyrimidin-4-yl)piperidine-3,4-diol] |  | 20 | > 10000
CCc1c(F)ccc2cc(O)cc(-c3ncc4c(N5CCC(C(N)=O)CC5)nc(OC[C@@]56CCCN5C[C@H](F)C6)nc4c3F)c12 [Example 6, 1-(7-(8-Ethyl-7-fluoro-3-hydroxynaphthalen-1-yl)-8-fluoro-2-(((2R,7aS)-2-fluorotetrahydro-1H-pyrrolizin-7a(5H)-yl)methoxy)pyrido[4,3-d]pyrimidin-4-yl)piperidine-4-carboxamide] |  | 55 | > 10000
CCc1c(F)ccc2cc(O)cc(-c3ncc4c(N5CCCCCC5)nc(OC[C@@]56CCCN5C[C@H](F)C6)nc4c3F)c12 [Example 2, 4-(4-(Azepan-1-yl)-8-fluoro-2-(((2R,7aS)-2-fluorotetrahydro-1H-pyrrolizin-7a(5H)-yl)methoxy)pyrido[4,3-d]pyrimidin-7-yl)-5-ethyl-6-fluoronaphthalen-2-ol] |  | 1 | 115
CCc1c(F)ccc2cc(O)cc(-c3ncc4c(N5CCC(S(N)(=O)=O)C5)nc(OC[C@@]56CCCN5C[C@H](F)C6)nc4c3F)c12 (stereo partly drawn) [Example 86, 1-(7-(8-Ethyl-7-fluoro-3-hydroxynaphthalen-1-yl)-8-fluoro-2-(((2R,7aS)-2-fluorotetrahydro-1H-pyrrolizin-7a(5H)-yl)methoxy)pyrido[4,3-d]pyrimidin-4-yl)pyrrolidine-3-sulfonamide] |  | 64 | > 10000
CCc1c(F)ccc2cc(O)cc(-c3ncc4c(N5CCC[C@@H](C(N)=O)C5)nc(OC[C@@]56CCCN5C[C@H](F)C6)nc4c3F)c12 [Example 162, (R)-1-(7-(8-Ethyl-7-fluoro-3-hydroxynaphthalen-1-yl)-8-fluoro-2-(((2R,7aS)-2-fluorotetrahydro-1H-pyrrolizin-7a(5H)-yl)methoxy)pyrido[4,3-d]pyrimidin-4-yl)piperidine-3-carboxamide] |  | 2 | 1610
CCc1c(F)ccc2cc(O)cc(-c3ncc4c(N5C[C@@H](O)C[C@H](F)C5)nc(OC[C@@]56CCCN5C[C@H](F)C6)nc4c3F)c12 (racemic) [Example 116, rac-(35,5S)-1-(7-(8-Ethyl-7-fluoro-3-hydroxynaphthalen-1-yl)-8-fluoro-2-(((2R,7aS)-2-fluorotetrahydro-1H-pyrrolizin-7a(5H)-yl)methoxy)pyrido[4,3-d]pyrimidin-4-yl)-5-fluoropiperidin-3-ol] |  | 4 | 792
CCc1c(F)ccc2cc(O)cc(-c3ncc4c(N5CCCCC(C)(O)C5)nc(OC[C@@]56CCCN5C[C@H](F)C6)nc4c3F)c12 (single isomer, unassigned) [Example 136] | 614 | 10 | 
C#Cc1c(F)ccc2cc(O)cc(-c3ncc4c(N5CCCC(O)(C(F)F)C5)nc(OC[C@@]56CCCN5C[C@H](F)C6)nc4c3F)c12 (single isomer, unassigned) [Example 41] |  | 1 | 25
CCc1c(F)ccc2cc(O)cc(-c3ncc4c(N5CC(C)CC(C(N)=O)C5)nc(OC[C@@]56CCCN5C[C@H](F)C6)nc4c3F)c12 (single isomer, unassigned) [Example 163] | 2730 | 11 | 
CCc1c(F)ccc2cc(O)cc(-c3ncc4c(N5C[C@H]6CC[C@@H]5C(O)C6)nc(OC[C@@]56CCCN5C[C@H](F)C6)nc4c3F)c12 (stereo partly drawn) [Example 17, (1R,4S)-2-(7-(8-Ethyl-7-fluoro-3-hydroxynaphthalen-1-yl)-8-fluoro-2-(((2R,7aS)-2-fluorotetrahydro-1H-pyrrolizin-7a(5H)-yl)methoxy)pyrido[4,3-d]pyrimidin-4-yl)-2-azabicyclo[2.2.2]octan-6-ol] |  | 38 | 3180
CCc1c(F)ccc2cc(O)cc(-c3ncc4c(N5CCCC(O)(C(F)F)C5)nc(OC[C@@]56CCCN5C[C@H](F)C6)nc4c3F)c12 (single isomer, unassigned) [Example 39] | 13 | 2 | 
C#Cc1c(F)ccc2cc(O)cc(-c3ncc4c(N5CC6CC(O)C(C6)C5)nc(OC[C@@]56CCCN5C[C@H](F)C6)nc4c3F)c12 (single isomer, unassigned) [Example 28] | 36 | 1 | 
CCc1c(F)ccc2cc(O)cc(-c3ncc4c(N5CCCCC(C)(O)C5)nc(OC[C@@]56CCCN5C[C@H](F)C6)nc4c3F)c12 (single isomer, unassigned) [Example 137] | 40 | 2 | 
C[C@@]1(O)CCCN(c2nc(OC[C@@]34CCCN3C[C@H](F)C4)nc3c(F)c(-c4cc(O)cc5ccc(F)c(Cl)c45)ncc23)C1 [Example 56, (R)-1-(7-(8-Chloro-7-fluoro-3-hydroxynaphthalen-1-yl)-8-fluoro-2-(((2R,7aS)-2-fluorotetrahydro-1H-pyrrolizin-7a(5H)-yl)methoxy)pyrido[4,3-d]pyrimidin-4-yl)-3-methylpiperidin-3-ol] |  | 1 | 33
C[C@@]1(O)CCCN(c2nc(OC[C@@]34CCCN3C[C@H](F)C4)nc3c(F)c(-c4cccc5ccc(F)c(F)c45)ncc23)C1 [Example 49, (R)-1-(7-(7,8-Difluoronaphthalen-1-yl)-8-fluoro-2-(((2R,7aS)-2-fluorotetrahydro-1H-pyrrolizin-7a(5H)-yl)methoxy)pyrido[4,3-d]pyrimidin-4-yl)-3-methylpiperidin-3-ol] |  | 17 | 991
CCc1c(F)ccc2cc(O)cc(-c3ncc4c(N5CCC[C@H]6OCC[C@H]65)nc(OC[C@@]56CCCN5C[C@H](F)C6)nc4c3F)c12 (relative stereo) [Example 42, rel-5-Ethyl-6-fluoro-4-(8-fluoro-2-(((2R,7aS)-2-fluorotetrahydro-1H-pyrrolizin-7a(5H)-yl)methoxy)-4-((3aR,7aR)-hexahydrofuro[3,2-b]pyridin-4(2H)-yl)pyrido[4,3-d]pyrimidin-7-yl)naphthalen-2-ol] |  | 38 | 810
CCc1c(F)ccc2cc(O)cc(-c3ncc4c(N5CCCC(S(=O)(=O)NC)C5)nc(OC[C@@]56CCCN5C[C@H](F)C6)nc4c3F)c12 (stereo partly drawn) [Example 79, 1-(7-(8-Ethyl-7-fluoro-3-hydroxynaphthalen-1-yl)-8-fluoro-2-(((2R,7aS)-2-fluorotetrahydro-1H-pyrrolizin-7a(5H)-yl)methoxy)pyrido[4,3-d]pyrimidin-4-yl)-N-methylpiperidine-3-sulfonamide] |  | 5 | 2190
CCc1c(F)ccc2cc(O)cc(-c3ncc4c(N5CC(S(N)(=O)=O)C5)nc(OC[C@@]56CCCN5C[C@H](F)C6)nc4c3F)c12 [Example 87, 1-(7-(8-Ethyl-7-fluoro-3-hydroxynaphthalen-1-yl)-8-fluoro-2-(((2R,7aS)-2-fluorotetrahydro-1H-pyrrolizin-7a(5H)-yl)methoxy)pyrido[4,3-d]pyrimidin-4-yl)azetidine-3-sulfonamide] |  | 63 | > 10000
Oc1cc(Cl)c(C2CC2)c(-c2ncc3c(N4CC5CC(O)C(C5)C4)nc(OC[C@@]45CCCN4C[C@H](F)C5)nc3c2F)c1 (single isomer, unassigned) [Example 30] |  | 3 | 399
